# Assay results reported in article PMC11249824 (Clinical and Translational Science, 2024).
# Marks after values point to notes of the source that are not given here.
# Columns and labels:
# [1] = attributed to sequestration by β‐cyclodextrin; cited from earlier work
# [2] = cited from earlier work
# ACKR3/CXCR7 = details: cited from earlier work
# CYP3A4 = details: in vitro, preclinical observation; cited from earlier work
# [3] = cited from earlier work; remark: listed apart in the source
# [4] = assay type: in vivo, healthy male subjects
# Safety and tolerability = assay type: in vivo, healthy male subjects; details: for Abdominal pain, number of adverse events / Abdominal pain, number of subjects / Diarrhea, number of adverse events / Diarrhea, number of subjects / Headache, number of adverse events / Headache, number of subjects / Nausea, number of adverse events / Nausea, number of subjects / Number of different TEAEs / Number of subjects with at least one TEAE / Somnolence, number of adverse events / Somnolence, number of subjects / Total number of TEAEs: N = 16
# [5] = up to and including a dose of 200 mg
# [6] = Treatment A: single oral 10 mg ACT‐1004‐1239 alone, fed, geometric mean (95% CI), N = 16
# [7] = Treatment A (ACT‐1004‐1239 alone)
# [8] = Treatment B2 (ACT‐1004‐1239 + itraconazole)
smiles,measurement,setting,value
O=C(Nc1ccc(OC(F)(F)Cl)cc1)c1cnc(N2CC[C@@H](O)C2)c(-c2ccn[nH]2)c1 [asciminib],decrease of exposure when given concomitantly with an itraconazole solution,[1],approximately 50%
O=C(N[C@H]1CCN(CC2CC2)C[C@@H]1C(=O)NC1(c2ncccn2)CC1)c1cc(-c2ccc(F)cc2F)on1 [ACT‐1004‐1239],contribution of elimination via M1 to drug's elimination,"[2]; humans, M1 plus A1 and A2",approximately 44%
same,unchanged drug recovered in excreta,[2]; oral 14C‐labeled ACT‐1004‐1239,15%
same,CXCL12 plasma concentration (target engagement),ACKR3/CXCR7,dose‐dependent increase
same,dependency of metabolism on CYP3A4,CYP3A4,94%
same,effect of food on exposure,[3],no effect of food
same,dose dependence of exposure,[3]; dose range 1–200 mg,dose‐proportional
same,absolute bioavailability,[3]; healthy subjects,53%
same,volume of distribution,[3]; healthy subjects,183 L
same,QTc liability,[3]; [5],without QTc liability
same,safety and tolerability,[3]; [5],safe and well‐tolerated
same,AUC0−t,[4]; [6],"300 (257, 352) ng * h/mL"
same,Cmax,[4]; [6],"25.6 (21.1, 31.0) ng/mL"
same,AUC0−inf,"[4]; Treatment A: single oral 10 mg ACT‐1004‐1239 alone, fed, geometric mean (95% CI), n = 10","326 (279, 380) ^a ng * h/mL"
same,t max,"[4]; Treatment A: single oral 10 mg ACT‐1004‐1239 alone, fed, median (range), N = 16","2.00 (0.5, 6.0) h"
same,median of differences in t max (90% CI),"[4]; Treatment B2 (with itraconazole) vs Treatment A (alone), Hodges‐Lehmann estimate",30 min
same,increase of exposure to ACT‐1004‐1239 with itraconazole versus alone,[4]; concomitant multiple doses 200 mg itraconazole (CYP3A4 inhibition),up to 2.9 fold
same,"Abdominal pain, number of adverse events",Safety and tolerability; [7],0 nAEs
same,"Abdominal pain, number of subjects",Safety and tolerability; [7],0 n (%)
same,"Diarrhea, number of adverse events",Safety and tolerability; [7],0 nAEs
same,"Diarrhea, number of subjects",Safety and tolerability; [7],0 n (%)
same,"Headache, number of adverse events",Safety and tolerability; [7],2 nAEs
same,"Headache, number of subjects",Safety and tolerability; [7],1 (6.3) n (%)
same,"Nausea, number of adverse events",Safety and tolerability; [7],2 nAEs
same,"Nausea, number of subjects",Safety and tolerability; [7],2 (12.5) n (%)
same,Number of different TEAEs,Safety and tolerability; [7],3 nAEs
same,Number of subjects with at least one TEAE,Safety and tolerability; [7],3 (18.8) n (%)
same,"Somnolence, number of adverse events",Safety and tolerability; [7],1 nAEs
same,"Somnolence, number of subjects",Safety and tolerability; [7],1 (6.3) n (%)
same,Total number of TEAEs,Safety and tolerability; [7],5 nAEs
same,"Abdominal pain, number of adverse events",Safety and tolerability; [8],1 nAEs
same,"Abdominal pain, number of subjects",Safety and tolerability; [8],1 (6.3) n (%)
same,"Diarrhea, number of adverse events",Safety and tolerability; [8],1 nAEs
same,"Diarrhea, number of subjects",Safety and tolerability; [8],1 (6.3) n (%)
same,"Headache, number of adverse events",Safety and tolerability; [8],1 nAEs
same,"Headache, number of subjects",Safety and tolerability; [8],1 (6.3) n (%)
same,"Nausea, number of adverse events",Safety and tolerability; [8],0 nAEs
same,"Nausea, number of subjects",Safety and tolerability; [8],0 n (%)
same,Number of different TEAEs,Safety and tolerability; [8],3 nAEs
same,Number of subjects with at least one TEAE,Safety and tolerability; [8],3 (18.8) n (%)
same,"Somnolence, number of adverse events",Safety and tolerability; [8],0 nAEs
same,"Somnolence, number of subjects",Safety and tolerability; [8],0 n (%)
same,Total number of TEAEs,Safety and tolerability; [8],3 nAEs
same,tolerability,"Safety and tolerability; all treatments, 10 mg ACT‐1004‐1239 in absence and presence of itraconazole",well‐tolerated
same,overall incidence of subjects with TEAEs,Safety and tolerability; in each treatment (A and B2),18.8%
